The subject of this experiment is HIV-1 strain 92-HT599. Nature of the experiment: Anti HIV-1 p24 assay, strain 92-HT599 in MT2 cells. In kind it is cell-based. On the procedure: MT2 cells were infected with the HIV-1 strain 92-HT599 (10TCID50/30000 cells). The infected cells are plated at the concentration of 30000 cells per well in a 96 well assay micro plate. A test compound was added to the micro plate in a defined format with the final concentration of DMSO (vehicle) being not more than 1%. Incubation was carried out in a CO2 incubator for 96 hours for viral infection. At the end of incubation period an aliquot from each well was taken for p24 estimation. The quantitation of p24 is an index for antiviral activity of the compound. Percent inhibition was calculated with reference to control values (vehicle).
P24 estimation was carried out using an Advance Biosciences kit as per the procedure as detailed by supplier.
[…] was made by dissolving test compound in DMSO. Subsequent dilutions were made with DMSO to make necessary working stocks (100×).

[1] abbreviates: Human immunodeficiency virus 1, MT2 cells, HIV-1 92-HT599, p24, concentration 0.1 μM, read-out: Percent inhibition.
[2] abbreviates: Human immunodeficiency virus 1, MT2 cells, HIV-1 92-HT599, p24, concentration 1 μM, read-out: Percent inhibition.
Setting [3] is: Human immunodeficiency virus 1, MT2, read-out: Percent inhibition.

Molecules are shown by their SMILES. Where two headings read alike, the source gives them in different places.

A word on the inhibition: it is the drop in the measured response relative to a control, in per cent. For the molecule `C=C(C)[C@@H]1CC[C@]2(C(=O)N[C@H]3C[C@@H](C(=O)N4CCCC4)C3(C)C)CC[C@]3(C)[C@H](CC[C@@H]4[C@@]5(C)CC[C@H](O)C(C)(C)[C@@H]5CC[C@]43C)[C@@H]12` [Example 14, (1R,3aS,5aR,5bR,7aR,9S,11aR,11bR,13aR,13bR)-N-((1S,3R)-2,2-dimethyl-3-(pyrrolidine-1-carbonyl)cyclobutyl)-9-hydroxy-5a,5b,8,8,11a-pentamethyl-1-(prop-1-en-2-yl)icosahydro-1H-cyclopenta[a]chrysene-3a-carboxamide], the inhibition at 0.1 µM under setting [1] amounted to 71%. Besides, the inhibition at 1 µM under setting [2] was found to be 32%.

Turning to `C=C(C)[C@@H]1CC[C@]2(C(=O)N[C@@H]3CC[C@H](CN4CCOCC4)C3)CC[C@]3(C)[C@H](CC[C@@H]4[C@@]5(C)CC[C@H](O)C(C)(C)[C@@H]5CC[C@]43C)[C@@H]12` [Example 23, (1R,3aS,5aR,5bR,7aR,9S,11aR,11bR,13aR,13bR)-9-hydroxy-5a,5b,8,8,11a-pentamethyl-N-((1R,3S)-3-(morpholinomethyl)cyclopentyl)-1-(prop-1-en-2-yl)icosahydro-1H-cyclopenta[a]chrysene-3a-carboxamide], the inhibition at 0.1 µM under setting [1] was determined as 11%. Moreover, under setting [2], the inhibition at 1 µM worked out at 37%.

For `C=C(C)[C@@H]1CCC2(C(=O)N3C4CCC3CC(n3c(C)nnc3C(C)C)C4)CC[C@]3(C)[C@H](CC[C@@H]4[C@@]5(C)CC[C@H](O)C(C)(C)[C@@H]5CC[C@]43C)[C@@H]12` (stereo partly drawn) [Example 25, ((1R,5aR,5bR,7aR,9S,11aR,11bR,13aR,13bR)-9-hydroxy-5a,5b,8,8,11a-pentamethyl-1-(prop-1-en-2-yl)icosahydro-1H-cyclopenta[a]chrysen-3a-yl)(3-(3-isopropyl-5-methyl-4H-1,2,4-triazol-4-yl)-8-azabicyclo[3.2.1]octan-8-yl)methanone], the inhibition at 0.1 µM under setting [1] was 33%. Also, the inhibition at 1 µM under setting [2] turned out to be 25%.

For `C=C(C)[C@@H]1CC[C@]2(C(=O)N[C@@H]3C=C[C@H](CN4CCOCC4)C3)CC[C@]3(C)[C@H](CC[C@@H]4[C@@]5(C)CC[C@H](O)C(C)(C)[C@@H]5CC[C@]43C)[C@@H]12` [Example 26, (1R,3aS,5aR,5bR,7aR,9S,11aR,11bR,13aR,13bR)-9-hydroxy-5a,5b,8,8,11a-pentamethyl-N-((1S,4R)-4-(morpholinomethyl)cyclopent-2-enyl)-1-(prop-1-en-2-yl)icosahydro-1H-cyclopenta[a]chrysene-3a-carboxamide], under setting [3], the inhibition at 0.1 µM was determined as 52% and the inhibition at 1 µM is 53%.

`C=C(C)[C@@H]1CC[C@]2(C(=O)N[C@@H]3C[C@H](C(=O)N[C@H](C(=O)O)C(C)C)C3(C)C)CC[C@]3(C)[C@H](CC[C@@H]4[C@@]5(C)CC[C@H](O)C(C)(C)[C@@H]5CC[C@]43C)[C@@H]12` [Example 40, (S)-2-((1S,3R)-3-((1R,3aS,5aR,5bR,7aR,9S,11aR,11bR,13aR,13bR)-9-hydroxy-5a,5b,8,8,11a-pentamethyl-1-(prop-1-en-2-yl)icosahydro-1H-cyclopenta[a]chrysene-3a-carboxamido)-2,2-dimethylcyclobutanecarboxamido)-3-methylbutanoic acid]: the inhibition at 0.1 µM under setting [1] was found to be 13%. Under setting [2], the inhibition at 1 µM is 42%.

With `C=C(C)[C@@H]1CC[C@]2(C(=O)N[C@@H]3C[C@H](C(=O)N4CCCC4)C3(C)C)CC[C@]3(C)[C@H](CC[C@@H]4[C@@]5(C)CC[C@H](O)C(C)(C)[C@@H]5CC[C@]43C)[C@@H]12` [Example 44, (1R,3aS,5aR,5bR,7aR,9S,11aR,11bR,13aR,13bR)-N-((1R,3S)-2,2-dimethyl-3-(pyrrolidine-1-carbonyl)cyclobutyl)-9-hydroxy-5a,5b,8,8,11a-pentamethyl-1-(prop-1-en-2-yl)icosahydro-1H-cyclopenta[a]chrysene-3a-carboxamide], the inhibition at 0.1 µM under setting [1] came to 15%. The inhibition at 1 µM under setting [2] was 43%.

Source of the values: patent publication US9067966B2, “Lupeol-type triterpene derivatives as antivirals” (priority 2009, dated 2015).
